Here are results for one molecule from patent publication US8383642B2, “Spiropiperidine compounds” (Eli Lilly and Company, priority 2009, dated 2013).

Assay [1] relates to Male Balb/c mice. Kind of assay: Intraperitoneal Glucose Tolerance Test (IPGTT). Format: in vivo, mouse. Conditions: for glucose levels: positive control 10 mg/kg. As to the method:
To examine the ability of exemplified compounds to activate GPR40 in-vivo resulting in anti-diabetic efficacy, i.e. an increase in insulin and reduction in glucose levels, a 4-day intraperitoneal glucose tolerance test (ipGTT) study is completed with each compound.
Male Balb/c (Albino mice) mice (8-9 weeks of age) are single housed and fed with normal rodent chow diet and water ad libitum. Animals are weighed and randomized by body weight and daily body weights are recorded. Upon study initiation, animals are dosed once per day orally for three days using a formulation carrying methylcellulose and tween-80. On the night before the 4-day IPGTT study, animals are fasted overnight in clean cages. On the morning of the IPGTT (Day 4), animals are dosed orally with compound or vehicle alone 60 minutes prior to the IPGTT (glucose 2 g/kg, i.p.). Blood glucose levels are determined from tail bleeds taken at 0, 3, 7, 15, 30, and 60 min after glucose challenge. Plasma is isolated and used to estimate respective insulin levels. The blood glucose excursion profile from t=0 to t=60 min is used to integrate an area under the curve (AUC) for each treatment. Percent lowering in glucose is calculated from the AUC data of the compounds with respect to the AUC of vehicle group. The test compound is orally administered at 0.03, 0.1, 0.3, 1.0, or 3.0 mg/kg, and a positive control is administered at 10 mg/kg. […] The ED50 for the compound of Example 1 based on AUCs for glucose lowering is 0.09 mg/kg. […] The results of this assay support the compound's activation of GPR-40, with resulting in vivo anti-diabetic efficacy.

Assay [2] addresses T1, PPARα (Homo sapiens, UniProt Q07869).
T1 construct: made in house; host or cells: HEK293 (cell lysates)
T1 sequence (Q07869 1-468): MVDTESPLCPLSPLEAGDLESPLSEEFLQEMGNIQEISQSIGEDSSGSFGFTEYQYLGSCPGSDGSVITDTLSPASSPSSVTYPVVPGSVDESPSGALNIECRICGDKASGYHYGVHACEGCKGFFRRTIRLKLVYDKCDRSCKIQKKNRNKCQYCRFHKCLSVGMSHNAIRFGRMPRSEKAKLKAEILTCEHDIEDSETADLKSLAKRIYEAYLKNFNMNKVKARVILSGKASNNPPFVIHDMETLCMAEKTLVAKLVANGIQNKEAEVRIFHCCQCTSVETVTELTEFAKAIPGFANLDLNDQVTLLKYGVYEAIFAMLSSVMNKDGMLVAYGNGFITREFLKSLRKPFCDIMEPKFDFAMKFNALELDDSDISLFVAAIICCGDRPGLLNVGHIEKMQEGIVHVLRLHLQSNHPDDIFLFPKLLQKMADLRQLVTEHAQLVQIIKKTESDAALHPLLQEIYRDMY
T1 sequence (P19793 1-462 partner): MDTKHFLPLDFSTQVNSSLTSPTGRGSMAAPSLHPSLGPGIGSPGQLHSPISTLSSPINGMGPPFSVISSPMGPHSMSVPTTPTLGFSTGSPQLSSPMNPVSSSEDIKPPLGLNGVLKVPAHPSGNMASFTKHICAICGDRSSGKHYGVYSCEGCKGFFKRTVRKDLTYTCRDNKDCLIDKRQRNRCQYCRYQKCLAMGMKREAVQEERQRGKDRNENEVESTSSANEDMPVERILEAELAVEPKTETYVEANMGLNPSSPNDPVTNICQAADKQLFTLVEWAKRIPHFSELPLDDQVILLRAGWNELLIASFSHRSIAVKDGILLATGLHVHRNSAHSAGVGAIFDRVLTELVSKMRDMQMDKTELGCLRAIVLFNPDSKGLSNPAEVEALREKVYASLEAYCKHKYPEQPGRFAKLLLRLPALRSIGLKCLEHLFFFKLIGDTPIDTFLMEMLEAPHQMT
Kind of assay: PPARα binding assay (SPA). The conditions noted are these: concentrations up to 10 μM. As to the method: Because GPR40 is known to be activated by ligands to PPARγ exemplified compounds are examined in PPARα, PPARδ, and PPARγ binding and functional assays to determine the selectivity of exemplified compounds for GPR40. Compounds exemplified herein are tested essentially as described below for PPAR binding and generally have binding values greater than 1000 nM with 10 μM concentrations of test compound and are thus considered negative for PPAR activity.
Binding affinities of compounds for the PPAR α, δ, and γ receptors are assessed using Scintillation Proximity Assay (SPA) technology. Biotinylated oligonucleotide Direct Repeat 2 (DR2) is used for binding the receptors to Yttrium silicate streptavidin-coated SPA beads. […] Non-specific binding is determined in the presence of 10,000 nM of the unlabeled PPAR α/δ dual agonist reference compound for the alpha and delta receptor assays and the PPARγ agonist reference compound for the gamma receptor assay. The binding reaction (100 μl per well in a 96 well [Costar 3632] plate) is incubated for 10 h and counted disintegration per minutes (dpm) on a Wallac Microbeta. Receptor binding affinity (IC50) for the compounds is determined by fitting an 11 point concentration-response curve with a 4-parameter logistic equation. Ki, is determined from the IC50 using the Cheng-Prussoff equation and Kd determined by saturation binding. […]

SMILES strings stand for the structures.

In the case of `CC#C[C@@H](CC(=O)O)c1ccc(OCc2ccc(CN3CCC4(C=Cc5ccccc54)CC3)cc2)cc1` [Example 1, (3S)-3-(4-{[4-(1′H-Spiro[indene-1,4′-piperidin]-1′-ylmethyl)benzyl]oxy}phenyl)hex-4-ynoic acid], the insulin levels result in assay [1] (3 minute time point, 1.0 and 3.0 mg/kg oral) was “significantly elevated”. Also, the glucose levels entry in assay [1] (3 minute time point, Example 1 0.03-3.0 mg/kg oral) is reported as “No concentration of the compound of Example 1 or the positive control significantly lowered”; in assay [1] (7 minute time point, Example 1 0.3, 1.0, and 3.0 mg/kg oral), “significantly lowered”; in assay [1] (15 minute time point, Example 1 0.1, 0.3, 1.0, and 3.0 mg/kg oral), “significantly lowered”; in assay [1] (30 minute time point, all doses of Example 1 (0.03-3.0 mg/kg oral)), “significantly lowered”; in assay [1] (60 minute time point, all doses of Example 1 (0.03-3.0 mg/kg oral)), “significantly lowered”. In assay [1] (Mus musculus, oral, once per day, 4-day, glucose 2 g/kg i.p., AUC t=0 to 60 min, read-out: ED50 based on AUCs for glucose lowering), the ED50 came out at 0.09 mg/kg. Besides, the binding detected result in assay [2] is given as “no binding is detected”.

The term ED50 denotes the midpoint of the dose-response relation.
